Data: patent publication US7579488B2 (Eli Lilly and Company, priority 2003, dated 2009)
Read-outs that look alike come from different tables or passages of the source.

Experiments:
IL-10 = IL-10 induction assay; type: cell-based; settings: Homo sapiens, PBMC
Description: 6. The IL-10 Induction Assay
This is an in vitro efficacy assay for psoriasis, abscess and adhesion. Psoriasis involves both keratinocytes and immune cells. IL-10 is a unique cytokine because it is anti-inflammatory and immunosuppressive. This assay tells us whether a VDRM is able to function as an agonist in PBMCs ([…]) or not.
(6) Materials and Method for Human IL-10 Induction Assay:
Isolation of Peripheral Blood Mononuclear Cells (PBMCs):
B. Prepare sterile tubes with ficol.
C. Add diluted blood to tubes.
E. Discard the top layer and collect the cells from middle layer.
F. Divide all cells into four tubes and add media.
H. Aspirate off media and resuspend.
J. Centrifuge. at 1200 rpm for 10 minutes.
M. Dissolve PHA in water.
N. Plate TPA/PHA treated PBMCs in well plates.
Sample Collection and Assay:
S. Remove all the cells by centrifugation and assay the supernatant for IL-10 by immunoassay.
1) T. Perform […] using anti-human IL-10 antibody coated beads, as described by the manufacturer (Linco Research Inc., St. Charles, Mo.).

female DBF mice = test: Mouse hypercalcemia assay; settings: oral gavage for 6 days
Description: The Mouse Hypercalcemia Assay
The Mouse Hypercalcemia Assay is a six day hypercalcemia test for toxicity and selectivity.
(4) Materials and Method for the Mouse Hypercalcemia Assay:
Weanling, virus-antibody-free, five to six weeks old female DBF mice (Harlan, Indianapolis, Ind.) are used for all the studies. Animals are allowed to acclimate to local vivarium conditions for 2 days. […] The animals then are divided into groups with 4-5 mice per group. Different doses of test compounds prepared in 10% Ethanol and 90% sesame oil are administered to mice orally via gavage for 6 days. 1α-25(OH)2D3 0.5 μg/kg/d was also given to one group of mice as the positive control. […] Raw data of group differences is assessed by analysis of variance (ANOVA) using Fisher's protected least significant difference (PLSD) where the significance level was P<0.05.

rat osteocalcin promoter = test: OCN (osteocalcin) promoter assay; type: cell-based; settings: RG-15 (ROS 17/2.8) cells
Method: 3. The OCN (Osteocalcin) Promoter Assay
The OCN Promoter Assay is an indicator and marker for osteoporosis. […] Preferred assay results are less than 50 nM.
(3) Materials and Method for The OCN Promoter Assay:
The activation of osteocalcin by VDR ligands was evaluated in a rat osteoblast-like cell line RG-15 (ROS 17/2.8) stably expressing rat osteocalcin promoter fused with luciferase reporter gene. […] Confluent RG-15 cells maintained in DMEM/F-12 medium (3:1) containing 5% FBS, 300 μg/ml G418 and at 37° C. under 5% CO2/95% air atmosphere were trypsinized (0.25% trypsin) and plated into white opaque 96-well cell culture plates (25000 cells/well). After 24 hr, cells (in DMEM/F-12 medium+2% FBS) were treated with various concentrations of compounds, dissolved in DMSO. The final DMSO concentration remained at 0.01% (v/v). After 48 hr treatment, the medium was removed, cells were lysed with 50 μl of lysis buffer (From Luciferase reporter assay system, Roche Diagnostics, Indianapolis, Ind.) and assayed for luciferase activity using the Luciferase Reporter Gene Assay kit from Boehringer Mannheim as per manufacturer's specifications.

KERtr cells = test: Keratinocyte proliferation assay; type: cell-based; settings: Homo sapiens, read-out: Kera. Prolif. IC50
Method: 5. The Keratinocyte Proliferation Assay
This Assay is indicative for the treatment of psoriasis.
(5) The Keratinocyte Proliferation Assay:
KERtr cells (Human skin keratinocyte transformed with a retrovirus vector, obtained from ATCC) were plated in 96-well flat-bottomed plates (3000 cells/well) in 100 μl keratinocyte serum free medium supplemented with bovine pituitary extract in the absence of EGF (Life Technologies, Rockville, Md.) and incubated at 37° C. for two days. The cells were treated with various concentrations of VDR ligands (ten-fold serial dilution from 10,000 nM to 0.1 nM in triplicate), dissolved in 100 μl keratinocyte serum free medium supplemented with bovine pituitary extract in the absence of EGF and incubated at 37° C. for 72 hr. […] Potency values (IC50) values were determined as the concentration (nM) of compound that elicited a half-maximal response.

VDR = target: T1, VDR (Homo sapiens, UniProt P11473); test: VDR CTF (Caco-2 cell co-transfection) assay; type: cell-based; settings: Caco-2 cells, pGal4-VDR-LBD co-transfection, luciferase; several values separated by /
T1 construct: the receptor expression vector pGal4-VDR-LBD (10 ng); expressed in transfected cells; host or cells: Caco-2 cells
T1 sequence (P11473 127-423 limits assumed): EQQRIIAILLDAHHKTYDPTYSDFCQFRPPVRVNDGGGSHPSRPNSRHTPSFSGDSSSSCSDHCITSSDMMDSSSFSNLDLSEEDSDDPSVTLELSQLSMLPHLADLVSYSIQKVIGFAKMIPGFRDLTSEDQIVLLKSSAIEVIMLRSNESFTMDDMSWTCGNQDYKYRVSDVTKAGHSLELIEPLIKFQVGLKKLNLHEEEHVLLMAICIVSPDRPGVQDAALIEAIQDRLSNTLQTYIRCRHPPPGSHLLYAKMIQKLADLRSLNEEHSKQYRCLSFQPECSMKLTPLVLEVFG
Method: 2. The Caco-2 Cell Co-Transfection Assay:
The Caco-2 cell assay is an indicator for the undesirable condition of hypercalcemia. This co-transfection assay is a surrogate assay for in vivo calcemic activity of VDR ligands. […] Preferred assay results are greater than 1000 nM.
(2) Materials and Method for the Caco-2 Cell Assay:
Caco-2 cells, grown in phenol red free, DMEM (Invitrogen, Carlsbad, Calif.) containing 10% charcoal-stripped FCS (Hyclone, Logan, Utah), were transfected with Fugene 6 reagent (Roche Diagnostics, Indianapolis, Ind.). Cells (5000/well) were plated 18 h before transfection in a 96 well plate. The Cells were transfected with Gal4-responsive reporter pFRLuc (150 ng, Stratagene, La Jolla Calif.) and the receptor expression vector pGal4-VDR-LBD (10 ng), along with Fugene 6 reagent (0.2 μl/well). The DNA-Fugene complex was formed by incubating the mixture for 30 min at room temperature. The cells were transfected in triplicate for 5 h, and treated with various concentrations of VDR ligands (form 0.01 nM to 10,000 nM concentration range) 18 h post-transfection. The luciferase activity was quantified using Steady-Glo reagent kit (Promega, Madison, Wis.) as per manufacturer's specifications.

RXR-VDR heterodimer = target: T2, RXR-VDR heterodimer (Homo sapiens, UniProt P11473); test: RXR-VDR heterodimerization assay (SaOS-2 cells); type: cell-based; settings: Gal4-RXR-DEF/VP16-VDR-LBD luciferase reporter, several values in a cell separated by /
T2 construct: Add the Gal4-RXR-DEF and VP16-VDR-LBD; expressed in transfected cells; host or cells: SaOS-2 cells
T2 sequence (P11473 127-423 limits assumed): T1 sequence (P11473 127-423 limits assumed)
T2 sequence (P19793 201-462 partner limits assumed): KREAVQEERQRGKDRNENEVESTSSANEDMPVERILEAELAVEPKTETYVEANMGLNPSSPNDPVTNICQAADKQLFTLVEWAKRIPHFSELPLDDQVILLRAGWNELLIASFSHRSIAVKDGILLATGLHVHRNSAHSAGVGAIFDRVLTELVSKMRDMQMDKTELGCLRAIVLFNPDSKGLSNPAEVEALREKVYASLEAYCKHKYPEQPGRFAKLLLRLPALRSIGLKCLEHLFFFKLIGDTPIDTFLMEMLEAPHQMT
Method: 1. The RXR-VDR Heterodimer Assay:
This assay provides the VDR activity of a test compound.
(1) Materials and Method for RXR-VDR Heterodimerization Assay:
Luciferase Assay Reagent: • Use Steady-Glo Luciferase Reagent from Promega (Cat #E2550) Consists of: a. E2533 Assay Substrate, lyopholized product and b. E2543 Assay Buffer. • Thaw at room temperature • Store Cell Harvesting Aspirate media from culture flask, rinse cells with HBSS and aspirate. Add trypsin and incubate. When cells appear detached, resuspend cells in growth media. Transfer into a new flask with fresh growth media for passaging the cells. Plate well plates and two extra plates A. Cell Count Mix the cell suspension using pipette Use Hematocytometer to count the cells Load cell suspension onto the hemocytometer chamber Count cells. […] In sterile flask add cell suspension to plating media. Mix. Add cells/well. Place the cells in the incubator. Cells should be about 75% confluent prior to transfection. DAY 2: Transfection Step 1: DNA and Media Add plain DMEM media to tubes for mixing the DNA Add the Reporter gene pFR-LUC Add the Gal4-RXR-DEF and VP16-VDR-LBD Step 2: FuGENE and Media Prepare plain DMEM media in a ubes for mixing FuGENE Add FuGENE 6 Transfection Reagent Incubate Step 3: FuGENE, DNA and Media Complex Add FuGENE Media complex from step 2 to DNA Media complex from step 1 Incubate Step 4: FuGENE, DNA and Media Complex to-well plate Add FuGENE-DNA-Media complex from step 3 to each plate Incubate. […] Day 4: Luciferase Assay Read the plates after drug treatment Remove part of media from all the wells and leave remainder Add Steady-Glo Luciferase Reagent mixture/wells Incubate Count each well using a Luminescence counter, Top Count NXT by Packard
Set a delay between plates to reduce the background.

[1] = comparison compounds, human PBMCs
[2] = Rattus norvegicus, comparison compounds
[3] = TPA/PHA stimulated human PBMCs, IL-10 in supernatant by immunoassay, several values separated by /
[4] = serum ionized calcium 6 hours after last dosing
[5] = Rattus norvegicus, 48 h, 48 hr treatment, luciferase, several values separated by /
[6] = 72 h, BrdU incorporation, several values separated by /

Structure (SMILES)	IC50 (IL-10; [1]) [nM]	Mouse Hypercal (female DBF mice; comparison compounds) [µg/kg/day]	EC50 (rat osteocalcin promoter; [2]) [nM]	IC50 (KERtr cells; comparison compounds) [nM]	IC50 (IL-10; [3]) [nM]	Mouse Hypercal (female DBF mice; [4]) [µg/kg/day]	EC50 (rat osteocalcin promoter; [5]) [nM]	IC50 (KERtr cells; [6]) [nM]	EC50 (VDR) [nM]	EC50 (rat osteocalcin promoter; 48 hr treatment, luciferase, several values separated by /) [nM]	EC50 (RXR-VDR heterodimer) [nM]
CCC(CC)(c1ccc(OCC(O)CO)c(C)c1)c1ccc(OCC(O)C(C)(C)C)c(C)c1 (stereo not shown) [BB, 3-(4-{1-Ethyl-1-[4-(2-hydroxy-3,3-dimethyl-butoxy)-3-methyl-phenyl]-propyl}-2-methyl-phenoxy)-propane-1,2-diol, reference compound]	28	20	8.24	10							
CCC(CC)(c1ccc(OCC(=O)C(C)(C)C)c(C)c1)c1cc2cc(C(=O)NCC(=O)O)ccc2o1 [Ex 7, [(2-{1-[4-(3,3-Dimethyl-2-oxo-butoxy)-3-methyl-phenyl]-1-ethylpropyl}-benzofuran-5-carbonyl)-amino]-acetic acid]					24	>300	0.4	5	412		
CCC(CC)(c1ccc(OCC(=O)C(C)(C)C)c(C(C)C)c1)c1cc2cc(C(=O)O)ccc2o1 [Ex 17]					95			13	589		
CCC(CC)(c1ccc(OCC(O)C(C)(C)C)c(C)c1)c1cc2ccc(C(=O)O)cc2o1 (stereo not shown) [Ex 19, 2-{1-Ethyl-1-[4-(2-hydroxy-3,3-dimethyl-butoxy)-3-methyl-phenyl]-propyl}-benzofuran-6-carboxylic acid]					34		1.4	8	620	0.9	
CCC(CC)(c1ccc(OCC(=O)C(C)(C)C)c(C)c1)c1ccc2oc(C(=O)O)cc2c1 [Ex 30, 5-{1-[4-(3,3-dimethyl-2-oxo-butoxy)-3-methyl-phenyl]-1-ethyl-propyl}-benzofuran-2-carboxylic acid]					25	>1000	0.3	9	364		
CCC(CC)(c1ccc(OCC(O)C(C)(C)C)c(C)c1)c1ccc2oc(C(=O)O)cc2c1 (stereo not shown) [Ex 31, 5-{1-ethyl-1-[4-(2-hydroxy-3,3-dimethyl-butoxy)-3-methyl-phenyl]-propyl}-benzofuran-2-carboxylic acid]					5.4		0.5	1	279		12
CCC(CC)(c1ccc(OCC(=O)C(C)(C)C)c(C)c1)c1ccc2oc(C(=O)NCC(=O)O)c(C)c2c1 [Ex 38, [(5-{1-[4-(3,3-dimethyl-2-oxo-butoxy)-3-methyl-phenyl]-1-ethyl-propyl}-3-methyl-benzofuran-2-carbonyl)-amino]-acetic acid]						>30	0.5	22	314		
CCC(CC)(c1ccc(OCC(=O)C(C)(C)C)c(C)c1)c1cc2cc(C(=O)O)ccc2o1 [Ex. 2]						>1000	3	12	677		75
CCC(CC)(c1ccc(OCC(=O)C(C)(C)C)c(C)c1)c1cc2cc(C(=O)Nc3nn[nH]n3)ccc2o1 [Ex. 11, 2-{1-[4-(3,3-dimethyl-2-oxo-butoxy)-3-methyl-phenyl]-1-ethyl-propyl}-benzofuran-5-carboxylic acid (2H-tetrazol-5-yl)-amide]					> 2000	>1000		9	819		730
CCc1cc(C(CC)(CC)c2cc3cc(C(=O)O)ccc3o2)ccc1OCC(=O)C(C)(C)C [Ex. 12]					49	>1000	0.7	16	515		
C=C1/C(=C\C=C2/CCC[C@]3(C)[C@@H]([C@H](C)/C=C/[C@@H](O)C4CC4)CC[C@@H]23)C[C@@H](O)C[C@@H]1O [FF, calcipotriol, reference compound]	0.5		0.28	103							
